Values joined by “and” are separate entries in the source; they are usually repeats but may differ in a detail not shown here. Equal values may be shown once.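 Cultured in 96-well plates, cells were exposed to test compound for 48 hours across five concentrations. The concentration for 50% growth inhibition is given as GI50. TGI is the concentration that stops growth completely.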
Legend:
Test in all cases: DTP human tumour cell line panel, 48 h
[1] = system: DMS 114 small cell lung
[2] = system: KM12 colon
[3] = system: MOLT-4 leukemia
[4] = system: OVCAR-3 ovarian
[5] = system: SF-268 CNS
[6] = system: SK-MEL-2 melanoma
[7] = system: SNB-78 CNS
[8] = system: SW-620 colon
[9] = system: UACC-62 melanoma
[10] = system: DU-145 prostate

Compound | TGI [1] [µM] | TGI [2] [µM] | TGI [3] [µM] | TGI [4] [µM] | TGI [5] | TGI [6] | TGI [7] | TGI [8] [µM] | TGI [9] [µM] | GI50 [1] [µM] | GI50 [2] [µM] | GI50 [4] [µM] | GI50 [5] [µM] | GI50 [6] [µM] | GI50 [7] [µM] | GI50 [8] [µM] | GI50 [9] [µM] | GI50 [3] [µM] | GI50 [10] [µM] | TGI [10] [µM]
COC(=O)[C@@]1(O)CC(C)C=C1C=O (some centres undefined) | 89.7 | > 100 | > 100 | > 100 | > 100 µM | > 100 µM | > 100 µM | > 100 | > 100 |  |  |  |  |  |  |  |  |  |  | 
CCCCCCCCC(O)C#CC(N)=O (centres undefined) | 17.9 |  | 66.1 | 20.5 |  | 26.3 µM | 57.5 µM | 37.2 | 19.9 |  |  |  |  |  |  |  |  |  |  | 
COC1=C2C[C@H](O)C(C)C[C@@]2(OC)OC1=O (some centres undefined) |  | > 100 | > 100 | > 100 | > 100 µM | > 100 µM | > 100 µM | > 100 | > 100 |  |  |  |  |  |  |  |  |  |  | 
CCO/C=C1\N=C(C(Cl)c2ccccc2)OC1=O (centres undefined) | > 100 | > 100 | > 100 | > 100 | > 100 µM | > 100 µM | > 100 µM | > 100 | > 100 |  |  |  |  |  |  |  |  |  |  | 
Cc1ccc(-c2cc(=O)c3cc(C)c(C)c(C(=O)O)c3o2)cc1 | > 100 | > 100 | > 100 | > 100 | > 100 µM | > 100 µM | > 100 µM | > 100 | > 100 |  |  |  |  |  |  |  |  |  |  | 
COc1ccc(OC)c(NCC#N)c1 | > 100 | > 100 | > 100 | > 100 | > 100 µM | > 100 µM |  | > 100 | > 100 |  |  |  |  |  |  |  |  |  |  | 
COc1cc(C=O)c(-c2cc3c(cc2C2(C)OCCS2)OCO3)c(OC)c1OC (centres undefined) | 71.8 | 34 | > 239 | 13.6 | > 239 µM | 47.7 µM | > 239 µM | 39.6 | 61.4 |  |  |  |  |  |  |  |  |  |  | 
Cc1ccc(C(=O)N2c3ccccc3N(C)n3cccc3C2CC(=O)O)cc1 (centres undefined) | > 100 | > 100 | > 100 | > 100 | > 100 µM | > 100 µM | > 100 µM | > 100 | > 100 |  |  |  |  |  |  |  |  |  |  | 
CCOC(=O)[C@H]1CSC[C@@H](C(=O)OC)N1 | > 100 | > 100 | > 100 | > 100 | > 100 µM | > 100 µM |  | > 100 | > 100 |  |  |  |  |  |  |  |  |  |  | 
O=C(O)C(C(=O)C(=O)C(C(=O)O)c1ccc(Cl)cc1)c1ccc(Cl)cc1 (centres undefined) | 5.64 | 13.4 | 5 | 10.2 | 11.9 µM |  | 13.9 µM | 13.5 | 3.91 |  |  |  |  |  |  |  |  |  |  | 
CCCCCCCC(=O)OCC1OC(n2cc(F)c(=O)[nH]c2=O)C(NC(=O)OCc2ccccc2)C(O)C1O (centres undefined) | > 100 | > 100 | > 100 | > 100 | > 100 µM | 53.5 µM | > 100 µM | > 100 | > 100 |  |  |  |  |  |  |  |  |  |  | 
O=c1cc(-c2ccccc2)[nH]c2c(Cl)cccc12 | > 100 |  | > 100 | > 100 | > 100 µM | > 100 µM |  | > 100 | 67.3 |  |  |  |  |  |  |  |  |  |  | 
CC(=O)OC(C)(C)/C=C/C(=O)[C@](C)(O)[C@H]1[C@H](O)C[C@@]2(C)[C@@H]3CC=C4[C@@H](C[C@H](O)C(=O)C4(C)C)[C@]3(CO)C(=O)C[C@]12C | 15.3 | 32.7 | 58.3 | 0.762 | 0.971 µM and 1.29 µM | 0.416 µM and 0.104 µM | 0.983 µM and 3.92 µM | 20 | 15.8 | 0.248 | 0.703 | 0.273 | 0.362 | 0.0339 | 0.269 | 0.159 | 0.127 |  |  | 
C/C(CC(=O)Nc1ccc(Cl)cc1)=N\NC(=O)C[n+]1ccccc1 | > 100 | > 100 | > 100 | > 100 | > 100 µM | > 100 µM | > 100 µM | > 100 | > 100 |  |  |  |  |  |  |  |  |  |  | 
NC(CC(=O)Nc1ccc(Cl)cc1)=Nc1ccccc1 |  | > 100 | > 100 | > 100 | > 100 µM | > 100 µM | > 100 µM | > 100 | > 100 |  |  |  |  |  |  |  |  |  |  | 
O=[P+](O)c1cc2ccccc2c2ccccc12 | > 100 | > 100 | > 100 | > 100 | > 100 µM |  | > 100 µM | > 100 | > 100 |  |  |  |  |  |  |  |  |  |  | 
O=C1[C@H]2ON(c3ccccc3)C(c3ccccc3F)[C@H]2C(=O)N1c1ccc(Cc2ccc(N3C(=O)[C@@H]4ON(c5ccccc5)C(c5ccccc5F)[C@@H]4C3=O)cc2)cc1 (some centres undefined) | > 100 | > 100 | > 100 | > 100 | > 100 µM | > 100 µM | > 100 µM | > 100 | > 100 |  |  |  |  |  |  |  |  |  |  | 
COc1cc([C@H]2c3cc4c(cc3[C@H](NCc3ccc([N+](=O)[O-])cc3)C3COC(=O)[C@H]32)OCO4)cc(OC)c1O (some centres undefined) | > 25.3 | 11.4 | > 100 | 40 | > 25.9 µM | 34.9 µM | > 100 µM | > 38.3 | 12.1 |  |  |  |  |  |  |  |  |  |  | 
O=c1cc(-c2ccccc2)nc(/C=C(\O)c2ccncc2)n1-c1ccccc1 | > 100 | > 100 |  | > 100 | > 100 µM | > 100 µM | > 100 µM | > 100 | > 100 |  |  |  |  |  |  |  |  |  |  | 
CCOc1ccccc1N1C(=O)C(=O)C(c2nc3ccccc3o2)/C(=N\N)C1=O (centres undefined) | > 100 | > 100 |  | > 100 | > 100 µM | > 100 µM | > 100 µM | > 100 | > 100 |  |  |  |  |  |  |  |  |  |  | 
CSc1nc(SC)c2c(C(N)=S)[nH]nc2n1 | 83 | > 100 | 99.3 | 57.8 | > 100 µM | 50.5 µM | 85.8 µM | > 100 | 55.6 |  |  |  |  |  |  |  |  |  |  | 
CC(C)(c1ccc(Oc2ccc(C#N)c(C#N)c2)cc1)c1ccc(Oc2ccc(C#N)c(C#N)c2)cc1 | > 100 | > 100 | > 100 | > 100 | > 100 µM | > 100 µM |  | > 100 | > 100 | > 100 | > 100 | > 100 | > 100 | > 100 |  |  | > 100 | > 100 |  | 
CC1=C(C(=O)Nc2ccc([N+](=O)[O-])cc2)C(c2ccccc2O)C(C(=O)Nc2ccc([N+](=O)[O-])cc2)=C(C)N1 | 44.8 | 55 | 52.8 | 51.4 | 49 µM | 31.8 µM | 91.8 µM | 94.1 |  |  |  |  |  |  |  |  |  |  |  | 
O=CC(Br)C(Br)c1ccccc1 (centres undefined) |  | 26 | 3.89 | 2.67 | 16 µM | 9.11 µM |  | 2.33 | 3.74 |  | 12.6 | 1.32 | 4.2 | 2.85 |  | 0.776 | 1.79 | 0.904 | 2.26 | 5.74
